Literature values as cited in US20200061109A1, “ZINC CHLORIDE HYDROXIDE HAVING EXCELLENT ZINC ION SUSTAINED-RELEASABILITY AND PRODUCTION METHOD THEREFOR” (JFE MINERAL COMPANY, LTD., priority 2016, published 2020).

Assays:
[1] = system: fibroblasts
[2] = system: skin; settings: in vivo

level that increases inflammatory cell infiltration of skin and significantly delays re-epithelialization [2]: not less than 15 mmol/L
SMILES: [Zn+2] [Zn^2+ ions]
concentration at which no toxicity is shown against fibroblasts [1]: no more than 500 μmol/L
